Test results as given in patent US20090028847A1, “MULTIPLE MYELOMA AND AL AMYLOID IMMUNOTHERAPY TARGETING IMMUNOGLOBULIN LIGHT CHAINS AND USES THEREOF” (TRUSTEES OF BOSTON UNIVERSITY, priority 2007, published 2009).

Legend:
[1] = test system: B cell lymphoblastoma (JY) cells pulsed with peptide; experiment: Chromium-release killing assay with CTL from peptide-immunized HHD mice, peptide-pulsed JY targets; assay type: ex vivo; conditions: for CTL lysis of peptide-pulsed target cells: T cells of HHD mice immunized with the peptide, not with negative control peptide
Method: (§1) Mice: HHD mice on […] background, transgenic for human MHC Class I (α1 and α2 domains from HLAA*0201, α3 domain from […]) and knockout of H2-D^b (mouse MHC Class I).
(§2) Immunizations: 200 μg peptide plus 200 μg HBVc “helper” peptide (to elicit CD4+ T cell help), emulsified in […] Freud's Adjuvant (IFA) is used to immunize the HHD mice subcutaneously in the lower abdominal area.
(§3) Mouse T Cell Culture: Spleens were harvested from the mice and dissociated using sterile frosted glass slides to yield single-cell suspension. Spleenocytes are plated at approximately 1×10^6 cells/ml and 10% FBS supplemented with L-glutamine, non-essential amino acids and β2-mercaptoethanol. Ex vivo cells were stimulated with 10 μg/ml peptide and fed every 2-3 days with medium and 2 ng/ml rIL-2 for 7-10 days.
Cell Lines: Human cell lines which naturally express the HLAA*0201 allele of MHC Class I are grown in RPMI 1640 and 10% FBS supplemented with L-glutamine. Cell lines include the JY and U66 lymphobastoma cell lines of B cell origin and the T2 cell line of T cell origin.
Killing Assay: Target cell lines are loaded with radioactive sodium chromate (^51Cr) and pulsed with 20 μg/ml peptide or as a negative control peptide, flu matrix protein MP-58. Spleen cells are plated with targets at various effector target ratios and incubated at 37° C., 5% CO2 overnight. Supernatants are harvested from each well and assayed for radioactive chromium indicating release from lysed cells. % specific lysis was determined by subtracting the control minimum release from experimental wells and dividing by maximum-minimum release.
Statistics: Statistical analysis was performed with Statview. Data from killing assays of a minimum of three mice are presented as means ± standard errors (SE). ANOVA was used to determine the statistical significance compared to the negative control peptide.

[2] = molecular target: HLA-A2 (Homo sapiens, UniProt P04439, D140Y/D185E/D98H/E176V/E277Q/G131W/G231S/I119V/I121R/I166T/I218V/L300P/L318F/N151K/N90K/P208A/P217A/Q86G/Q94H/R138H/R169H/T345S); experiment: Cell-based fluorescence peptide/MHC (HLA-A2) binding and stability assay; conditions: for peptide binding to HLA-A2: FIG. 1, fluorescence shift (FL1) in presence vs absence of peptide
Description: The native Ig λ62-10 is shown in panel A, and the heteroclitic Ig λ62-10 is show in panel B, with the shift to the right (filled in curve) in the presence of the compared to their absence (unfilled curve) indicating Ig λ62-10 peptide binding to HLA-A2 (FL1).
The inventors discovered, using Ig light chain sequencing studies with bone marrow aspirates from 264 AL amyloid subjects the relative frequency of light chain subtypes in AL amyloidosis. Selecting the over-represented light chains in AL amyliod subjects, the inventors evaluated the affinity for formation of stable complexes for the HLA-A*0201 (HLA-A2)-binding peptides using three algorithms to predict the stability of peptide-MHC class I complexes. One such subtype (lambda 6; 16% of all AL amyloidosis cases) contains a conserved framework I sequence (lambda 6 (2-10)) predicted to bind stably to HLA-A2. The inventors confirmed this prediction using a standard fluorescence assay. Subsequently, the inventors tested the ability to induce CTL capable of lysing peptide-pulsed or Ig lambda 6-expressing human B cell tumors by immunizing HLA-A2 transgenic, (HHD) mice (Firat et al, 1999) with the lambda 6 (2-10) peptide. The investigators also tested the ability of lambda 6 (2-10) peptide-induced CTL to cross-react with plasma cells expressing a related lambda light chain subtype (lambda 2). Using public web-based algorithms we identified potential immunogenic peptides from a human immunoglobulin light chain (lambda 6) which causes 16-20% of all AL amyloidosis. Culture based assays supported the likelihood that the identified peptide would be immunogenic.

[3] = test system: JY cells transfected with full length λ6 gene; experiment: Chromium-release killing assay with CTL from peptide-immunized HHD mice, JY cells transfected with full length λ6 gene; assay type: in vivo; conditions: FIG. 4
Method: as §1, §2, §3
(§4) Cell Lines: Human cell lines which naturally express the HLAA*0201 allele of MHC Class I are grown in RPMI 1640 and 10% FBS supplemented with L-glutamine. […]
(§5) Killing Assay: Target cell lines are loaded with radioactive sodium chromate (^51Cr) and pulsed with 20 μg/ml peptide or as a negative control peptide, flu matrix protein MP-58. […] Supernatants are harvested from each well and assayed for radioactive chromium indicating release from lysed cells. % specific lysis was determined by subtracting the control minimum release from experimental wells and dividing by maximum-minimum release. […]

[4] = test system: Ig λ2-expressing U266 multiple myeloma plasma cells; experiment: Chromium-release killing assay with CTL from peptide-immunized HHD mice, U266 targets; assay type: ex vivo; conditions: FIG. 5
Method: as §1, §2, §3, §4, §5

[5] = molecular target: T1, HLA-A*0201 (HLA-A2) on cells (human); experiment: flow cytometry, HLA-A2 fluorescence (FL1) on cells with and without peptide
T1 construct: whole, on cells; also called MHC Class I

[6] = T cells of HHD mice immunized with the peptide

YLFPRLYPV (listed as Mus musculus) [heteroclitic mBlimp470-478, heteroclitic variant of mBlimp470-478]
CTL lysis of peptide-pulsed target cells [1]: lysed target cells pulsed with the hc murine Blimp470-478 peptide
mice that produced a CTL response ([1]; of 10 mice immunized, FIG. 8): 7 mice

YMLTQPHSV [het λ62-10, heteroclitic variant of lambda 6(2-10), substitution at position 1]
peptide binding to HLA-A2 ([2]; listed as YMLTQPHSV (SEQ ID NO: 2)): higher affinity
peptide binding to HLA-A2 ([2]; listed as heteroclitic Ig λ62-10): binds to HLA-A2
stability of peptide/MHC complex ([2]; FIG. 9, as early as 2 hours and over at least 24 hours): more stable than the native lambda 6 peptide
CTL lysis of peptide-pulsed target cells [1]: lysed target cells pulsed with either heteroclitic λ6 peptide or the native λ6 peptide
mice that produced a CTL response ([1]; of 8 mice immunized, FIG. 3): 7 mice

FMLTQPHSV [λ62-10, 9mer from framework 1 of the human lambda 6 immunoglobulin light chain]
CTL lysis of targets transfected with full length λ6 gene [3, 6]: lysed targets transfected with the gene for the full length λ6 protein
mice that produced a CTL response ([3]; of 16 mice immunized): 13 mice
CTL lysis of U266 target cells [4, 6]: lysed U266 target cells pulsed with the λ6 peptide as well as U266 cells not pulsed with a peptide
mice that produced a CTL response ([4]; of 11 mice immunized): 8 mice
peptide binding to HLA-A2 [2]: binds to HLA-A2
CTL lysis of peptide-pulsed target cells [1]: lysed target cells pulsed with the λ6 peptide
mice that produced a CTL response ([1]; of 24 mice immunized, FIG. 2): 17 mice

SLFPRLYPV (listed as Mus musculus) [mBlimp470-478, native peptide of the murine Blimp-1 protein]
CTL lysis of peptide-pulsed target cells [1]: lysed target cells pulsed with the native murine Blimp470-478 peptide
mice that produced a CTL response ([1]; of 12 mice immunized, FIG. 7): 10 mice

FMLTQPHSV (also called λ62-10; Ig λ62-10) [lambda 6(2-10) peptide]
binding result [5]: binds

B1: heteroclitic lambda 6(2-10) peptide (peptide)
peptide: YMLTQPHSV
notes: Variant of the native lambda 6(2-10) peptide with one substitution at position 1 of the 9mer; also called het λ62-10; heteroclitic Ig λ62-10
binding result [5]: binds
